# Reference: patent US8815306B2, “Methods and compositions for promoting bone and joint health” (Metaproteomics, LLC, priority 2007, dated 2014)
# System: TNFα induced MMP-13 expression
# Assay: TNFα induced MMP-13 expression in human chondrocyte cell line SW1353
# Conditions: Homo sapiens, SW1353, 24 h, read-out: TNFa Stimulated MMP-13 average, Table 4; 20 ug/mL; SW1353, TNFα 10 ng/ml 24 h; TNF pos = 100%
# Protocol: The SW1353 human chondrocyte cell line was used as described below.
# Cells were grown and subcultured in 96-well plates at a density of 8×10^4 cells per well and allowed to reach ˜80% confluence overnight. Test compounds in medium were added to the cells at a final concentration of 0.1% DMSO. Following one hour of incubation with the test compounds, TNFα (10 ng/ml) or medium alone was added to the cell wells and incubation continued for 24 hours. The supernatant media was subsequently collected for MMP-13 determination.
# Determination of MMP-13: A commercial, non-radioactive procedure for quantification of MMP-13 was used according to the manufacturer's instructions using MMP-13 as a standard. A minimum of 3 wells were used for each test condition.
# The amount of MMP-13 release into the medium was determined by comparison of the MMP-13 generated in the presence or absence of TNFα and test compounds. A minimum of three wells were used for each test condition. The basal MMP-without 13 levels without TNFα stimulation was subtracted from TNF stimulation to determine the TNFα induced MMP-13 expression in the medium and the levels normalized to 100%. The percent activity of test compounds was measured in the presence of TNFα and referred as TNFα induced MMP-13 expression.
# A minimum of three concentrations were used to determine the dose-response curve and a median inhibitory concentration (IC50).
row,Molecule,activity at 20 µg/mL [%]
1,C/C=C1/[C@H](O[C@@H]2O[C@H](CO)[C@@H](O)[C@H](O)[C@H]2O)OC=C(C(=O)OC)[C@H]1CC(=O)OCCc1ccc(O)c(O)c1 [Oleuropein],-31
2,CC1(C)C=Cc2c(ccc3c2OC[C@@H](c2ccc(O)cc2O)C3)O1 [Glabridin],79
3,O=c1c(-c2ccc(O)cc2)coc2cc(O)cc(O)c12 [Genistein],27
4,C[C@@H]1O[C@@H](OC[C@H]2O[C@@H](Oc3c(-c4ccc(O)c(O)c4)oc4cc(O)cc(O)c4c3=O)[C@H](O)[C@@H](O)[C@@H]2O)[C@H](O)[C@H](O)[C@H]1O [Rutin],-7

# Same assay, conditions: Table 4; 20 ug/mL; SW1353, TNFα 10 ng/ml 24 h; TNF pos = 100%
row,Molecule,TNFa Stimulated MMP-13 average [%]
1,O=C([O-])CC(O)(CC(=O)[O-])C(=O)[O-].[K+].[K+].[K+] [Potassium Citrate],95
2,CC(C)=CCC/C(C)=C/CC/C(C)=C/CC/C(C)=C/CC1=C(C)C(=O)c2ccccc2C1=O [Vitamin K2],56
3,Hyaluronic Acid,105
4,Inulin,33
5,COc1ccc([C@@H]2CC(=O)c3c(O)cc(O[C@@H]4O[C@H](CO[C@@H]5O[C@@H](C)[C@H](O)[C@@H](O)[C@H]5O)[C@@H](O)[C@H](O)[C@H]4O)cc3O2)cc1O [Hesperidin],13
6,CC/C=C\C/C=C\C/C=C\C/C=C\C/C=C\C/C=C\CCC(=O)O [DHA],265

# System: sRANKL mediated TRAP activity (osteoclastogenesis), RAW 264.7
# Assay: sRANKL mediated osteoclastogenesis: TRAP activity in RAW 264.7 cells
# Conditions: 1 ug/mL test compound; RAW 264.7 cells; sRANKL alone normalized to 100%
# Protocol: Following overnight incubation with the test compounds, sRANKL (50 ng/ml) or medium alone was added to the cell wells. The medium was replaced after 2 days with test compounds and sRANKL and incubation was continued for 3 additional days.
# The cells were washed twice with ice cold PBS and lysed in 150 μl of 0.2% triton x-100 in PBS. TRAP activity in cell lysates was determined by using TRAP solution from the kit (Sigma 387A1 kit), according to the manufacturers instructions. A 100 μl cell lysates was added to 100 μl of TRAP solution in 96 well plate and incubated at 37° C. for 1 hr. The absorbance was measured at 555 nm using a plate reader. The protein concentration was estimated using BCA reagent (Sigma) and the final activity was normalized for equal protein.
# Inhibition of TRAP activity was determined by comparison of the TRAP activity in the presence of with and with out test compounds in sRANKL, activated osteoclasts. A minimum of two wells were used for each concentration.
# Inhibition of TRAP activity was determined by comparison in the presence of with and with out test compounds in sRANKL activated osteoclasts. A minimum of two wells were used for each concentration. The basal TRAP activity levels with out sRANKL stimulation was subtracted from sRANKL stimulation to get the sRANKL induced TRAP activity and the activity was normalized to 100%. The percent activity of test compounds was measured in the presence of sRANKL and referred as sRANKL induced TRAP activity.
# A minimum of three concentrations were used to determine median inhibitory concentration (IC50).
row,Molecule,% TRAP activity average (sRANKL induced TRAP activity) [%]
1,Hyaluronic Acid,122
2,Conjugated Linoleic acid,86

# Same assay, conditions: 5 ug/mL test compound; RAW 264.7 cells; sRANKL alone normalized to 100%
row,Molecule,% TRAP activity average (sRANKL induced TRAP activity) [%]
1,Hyaluronic Acid,130
2,Conjugated Linoleic acid,81

# Same assay, conditions: 10 ug/mL test compound; RAW 264.7 cells; sRANKL alone normalized to 100%
row,Molecule,% TRAP activity average (sRANKL induced TRAP activity) [%]
1,Hyaluronic Acid,111
2,Conjugated Linoleic acid,79

# Same assay, conditions: Mus musculus, RAW264.7, read-out: % TRAP Activity average
Molecule,activity at 5 µg/mL [%],activity at 10 µg/mL [%]
C/C=C1/[C@H](O[C@@H]2O[C@H](CO)[C@@H](O)[C@H](O)[C@H]2O)OC=C(C(=O)OC)[C@H]1CC(=O)OCCc1ccc(O)c(O)c1 [Oleuropein],82,81
CC1(C)C=Cc2c(ccc3c2OC[C@@H](c2ccc(O)cc2O)C3)O1 [Glabridin],82,75
O=c1c(-c2ccc(O)cc2)coc2cc(O)cc(O)c12 [Genistein],91,72
C[C@@H]1O[C@@H](OC[C@H]2O[C@@H](Oc3c(-c4ccc(O)c(O)c4)oc4cc(O)cc(O)c4c3=O)[C@H](O)[C@@H](O)[C@@H]2O)[C@H](O)[C@H](O)[C@H]1O [Rutin],106,74

# Same assay, conditions: Table 8; 5 ug/mL; RAW 264.7, sRANKL 50 ng/ml; RANKL = 100%
row,Molecule,% TRAP Activity average [%]
1,Hyaluronic Acid,35
2,Inulin,87
3,COc1ccc([C@@H]2CC(=O)c3c(O)cc(O[C@@H]4O[C@H](CO[C@@H]5O[C@@H](C)[C@H](O)[C@@H](O)[C@H]5O)[C@@H](O)[C@H](O)[C@H]4O)cc3O2)cc1O [Hesperidin],81
4,CC/C=C\C/C=C\C/C=C\C/C=C\C/C=C\C/C=C\CCC(=O)O [DHA],120

# Same assay, conditions: Table 8; 10 ug/mL; RAW 264.7, sRANKL 50 ng/ml; RANKL = 100%
row,Molecule,% TRAP Activity average [%]
1,Hyaluronic Acid,2
2,Inulin,69
3,COc1ccc([C@@H]2CC(=O)c3c(O)cc(O[C@@H]4O[C@H](CO[C@@H]5O[C@@H](C)[C@H](O)[C@@H](O)[C@H]5O)[C@@H](O)[C@H](O)[C@H]4O)cc3O2)cc1O [Hesperidin],76
4,CC/C=C\C/C=C\C/C=C\C/C=C\C/C=C\C/C=C\CCC(=O)O [DHA],105
